Tested on: 843782-103-R-J1-PDC complex spheroid viability
Assay: Anticancer human tumor 843782-103-R-J1-PDC patient-derived lung adenocarcinoma cell line growth inhibition [RAS]
Conditions: for viability, T/C: stronger effect = lower value; active = viability on the fitted dose curve at most 10% of control; inactive = the rest
In short: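 Agents were tested in combination matrices in half-log decrements from a top concentration at or near clinical Cmax (10 microM if undetermined). Targets were multi-cell spheroids of tumour lines plus HUVEC and MSC stromal cells.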

[1] = curve of first compound, second compound 0.0316 µM
[2] = curve of first compound, second compound 0.1 µM
[3] = curve of first compound, second compound 0.316 µM
[4] = curve of first compound, second compound 1 µM
[5] = curve of first compound, second compound 3.16 µM
[6] = curve of first compound, second compound 10 µM
[7] = second compound 0.0316 µM, first compound 0.00316 µM
[8] = second compound 0.0316 µM, first compound 0.01 µM
[9] = second compound 0.0316 µM, first compound 0.0316 µM
[10] = second compound 0.0316 µM, first compound 0.1 µM
[11] = second compound 0.0316 µM, first compound 0.316 µM
[12] = second compound 0.0316 µM, first compound 1 µM
[13] = second compound 0.1 µM, first compound 0.00316 µM
[14] = second compound 0.1 µM, first compound 0.01 µM
[15] = second compound 0.1 µM, first compound 0.0316 µM
[16] = second compound 0.1 µM, first compound 0.1 µM
[17] = second compound 0.1 µM, first compound 0.316 µM
[18] = second compound 0.1 µM, first compound 1 µM
[19] = second compound 0.316 µM, first compound 0.00316 µM
[20] = second compound 0.316 µM, first compound 0.01 µM
[21] = second compound 0.316 µM, first compound 0.0316 µM
[22] = second compound 0.316 µM, first compound 0.1 µM
[23] = second compound 0.316 µM, first compound 0.316 µM
[24] = second compound 0.316 µM, first compound 1 µM
[25] = second compound 1 µM, first compound 0.00316 µM
[26] = second compound 1 µM, first compound 0.01 µM
[27] = second compound 1 µM, first compound 0.0316 µM
[28] = second compound 1 µM, first compound 0.1 µM
[29] = second compound 1 µM, first compound 0.316 µM
[30] = second compound 1 µM, first compound 1 µM
[31] = second compound 3.16 µM, first compound 0.00316 µM
[32] = second compound 3.16 µM, first compound 0.01 µM
[33] = second compound 3.16 µM, first compound 0.0316 µM
[34] = second compound 3.16 µM, first compound 0.1 µM
[35] = second compound 3.16 µM, first compound 0.316 µM
[36] = second compound 3.16 µM, first compound 1 µM
[37] = second compound 10 µM, first compound 0.00316 µM
[38] = second compound 10 µM, first compound 0.01 µM
[39] = second compound 10 µM, first compound 0.0316 µM
[40] = second compound 10 µM, first compound 0.1 µM
[41] = second compound 10 µM, first compound 0.316 µM
[42] = second compound 10 µM, first compound 1 µM
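Note: viability read after seven days of compound exposure.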

C=CC(=O)Nc1cc(Nc2nccc(-c3cn(C)c4ccccc34)n2)c(OC)cc1N(C)CCN(C)C + C#Cc1c(F)ccc2cc(O)cc(-c3ncc4c(N5CC6CCC(C5)N6)nc(OCC56CCCN5CC(F)C6)nc4c3F)c12
57.6 nM: IC50 [6]
595 nM: IC50 [4]
231 nM: IC50 [5]
> 1000 nM: IC50 [1] | IC50 [2] | IC50 [3]
inactive: viability, T/C [7] 108% | viability, T/C [8] 98.2% | viability, T/C [9] 101% | viability, T/C [10] 96.9% | viability, T/C [11] 94.6% | viability, T/C [12] 55.4% | viability, T/C [13] 104% | viability, T/C [14] 94.7% | viability, T/C [15] 102% | viability, T/C [16] 97% | viability, T/C [17] 88.2% | viability, T/C [18] 64.2% | viability, T/C [19] 105% | viability, T/C [20] 99.4% | viability, T/C [21] 101% | viability, T/C [22] 93.9% | viability, T/C [23] 80% | viability, T/C [24] 54.4% | viability, T/C [25] 97% | viability, T/C [26] 90.7% | viability, T/C [27] 99.9% | viability, T/C [28] 88.9% | viability, T/C [29] 65.3% | viability, T/C [30] 37.6% | viability, T/C [31] 90.3% | viability, T/C [32] 81.6% | viability, T/C [33] 88% | viability, T/C [34] 63.6% | viability, T/C [35] 46% | viability, T/C [36] 33.3% | viability, T/C [37] 55.9% | viability, T/C [38] 54% | viability, T/C [39] 56.5% | viability, T/C [40] 44.7% | viability, T/C [41] 33.1%
active: viability, T/C [42] 4.02%

C=CC(=O)N1CCN(c2nc(OCC3CCCN3C)nc3c(F)c(-c4nc(N)cc(C)c4C(F)(F)F)c(Cl)cc23)C(C)C1 (centres undefined) + C#Cc1c(F)ccc2cc(O)cc(-c3ncc4c(N5CC6CCC(C5)N6)nc(OCC56CCCN5CC(F)C6)nc4c3F)c12
inactive: viability, T/C [7] 89.9% | viability, T/C [8] 81.1% | viability, T/C [9] 83.3% | viability, T/C [10] 76.3% | viability, T/C [11] 88.4% | viability, T/C [12] 79.5% | viability, T/C [13] 89.7% | viability, T/C [14] 83.1% | viability, T/C [15] 74.4% | viability, T/C [16] 78.1% | viability, T/C [17] 69.8% | viability, T/C [18] 80.6% | viability, T/C [19] 86.5% | viability, T/C [20] 68.1% | viability, T/C [21] 74.8% | viability, T/C [22] 78.8% | viability, T/C [23] 77.4% | viability, T/C [24] 76.1% | viability, T/C [25] 81% | viability, T/C [26] 74.1% | viability, T/C [27] 79.3% | viability, T/C [28] 69.3% | viability, T/C [29] 65.8% | viability, T/C [30] 68.5% | viability, T/C [31] 62.2% | viability, T/C [32] 67.2% | viability, T/C [33] 70% | viability, T/C [34] 64.3% | viability, T/C [35] 60.1% | viability, T/C [36] 64.5% | viability, T/C [37] 39.6% | viability, T/C [38] 57% | viability, T/C [39] 44.8% | viability, T/C [40] 49.7% | viability, T/C [41] 40.5% | viability, T/C [42] 40.5%
< 3.16 nM: IC50 [6]
> 1000 nM: IC50 [1] | IC50 [2] | IC50 [3] | IC50 [4] | IC50 [5]

CC1(O)CCCC1n1c(=O)c(C(F)F)cc2cnc(NC3CCN(S(C)(=O)=O)CC3)nc21 (centres undefined) + C=CC(=O)N1CCN(c2nc(OCC3CCCN3C)nc3c(F)c(-c4nc(N)cc(C)c4C(F)(F)F)c(Cl)cc23)C(C)C1
147 nM: IC50 (curve of first compound, second compound 0.00316 µM)
active: viability, T/C (second compound 0.00316 µM, first compound 10 µM) 2.56% | viability, T/C (second compound 0.01 µM, first compound 10 µM) 3.18% | viability, T/C (second compound 0.0316 µM, first compound 10 µM) 2.81% | viability, T/C (second compound 0.1 µM, first compound 10 µM) 2.61% | viability, T/C (second compound 1 µM, first compound 10 µM) 2.07%
152 nM: IC50 (curve of first compound, second compound 0.01 µM)
inactive: viability, T/C (second compound 0.00316 µM, first compound 0.0316 µM) 84.9% | viability, T/C (second compound 0.00316 µM, first compound 0.1 µM) 61.6% | viability, T/C (second compound 0.00316 µM, first compound 0.316 µM) 27.7% | viability, T/C (second compound 0.00316 µM, first compound 1 µM) 24.3% | viability, T/C (second compound 0.00316 µM, first compound 3.16 µM) 24.2% | viability, T/C (second compound 0.01 µM, first compound 0.0316 µM) 81.2% | viability, T/C (second compound 0.01 µM, first compound 0.1 µM) 61.4% | viability, T/C (second compound 0.01 µM, first compound 0.316 µM) 28.2% | viability, T/C (second compound 0.01 µM, first compound 1 µM) 29.2% | viability, T/C (second compound 0.01 µM, first compound 3.16 µM) 21.7% | viability, T/C [9] 75.9% | viability, T/C [10] 49.9% | viability, T/C [11] 24% | viability, T/C [12] 27.5% | viability, T/C (second compound 0.0316 µM, first compound 3.16 µM) 19.6% | viability, T/C [15] 78.7% | viability, T/C [16] 59.2% | viability, T/C [17] 24.4% | viability, T/C [18] 27.2% | viability, T/C (second compound 0.1 µM, first compound 3.16 µM) 23% | viability, T/C [21] 86% | viability, T/C [22] 58.8% | viability, T/C [23] 26.2% | viability, T/C [24] 28.5% | viability, T/C (second compound 0.316 µM, first compound 3.16 µM) 25.2% | viability, T/C (second compound 0.316 µM, first compound 10 µM) 2.69% | viability, T/C [27] 84.1% | viability, T/C [28] 54.1% | viability, T/C [29] 33.1% | viability, T/C [30] 25.1% | viability, T/C (second compound 1 µM, first compound 3.16 µM) 17.2%
96.4 nM: IC50 [1]
138 nM: IC50 [4]
140 nM: IC50 [3]
126 nM: IC50 [2]

CC1(O)CCCC1n1c(=O)c(C(F)F)cc2cnc(NC3CCN(S(C)(=O)=O)CC3)nc21 (centres undefined)
inactive: viability, T/C (compound 0.0316 µM) 103% [middle of 4 runs] | viability, T/C (compound 0.316 µM) 31.9% [middle of 4 runs] | viability, T/C (compound 1 µM) 37.1% [middle of 4 runs]
23.7% [middle of 4 runs]: viability, T/C (compound 3.16 µM)
307 nM [middle of 4 runs]: IC50 (curve of compound)
3.54% [middle of 4 runs]: viability, T/C (compound 10 µM)

Nc1ccn(C2OC(CO)C(O)C2(F)F)c(=O)n1 (centres undefined) + C#Cc1c(F)ccc2cc(O)cc(-c3ncc4c(N5CC6CCC(C5)N6)nc(OCC56CCCN5CC(F)C6)nc4c3F)c12
14.3 nM: IC50 [6]
39.3 nM: IC50 [2]
32.6 nM: IC50 [4]
inactive: viability, T/C [7] 101% | viability, T/C [8] 101% | viability, T/C [9] 46.1% | viability, T/C [13] 99.5% | viability, T/C [14] 106% | viability, T/C [15] 59.7% | viability, T/C [19] 107% | viability, T/C [20] 103% | viability, T/C [21] 65.4% | viability, T/C [25] 110% | viability, T/C [26] 90.7% | viability, T/C [27] 54.1% | viability, T/C [28] 9.25% | viability, T/C [31] 93% | viability, T/C [32] 73.8% | viability, T/C [33] 40% | viability, T/C [34] 7.44% | viability, T/C [37] 64.6% | viability, T/C [38] 59.5% | viability, T/C [39] 30.3%
active: viability, T/C [10] 8.18% | viability, T/C [11] 2.69% | viability, T/C [12] 1.88% | viability, T/C [16] 8.24% | viability, T/C [17] 1.77% | viability, T/C [18] 1.7% | viability, T/C [22] 5.81% | viability, T/C [23] 2.1% | viability, T/C [24] 2.74% | viability, T/C [29] 2.99% | viability, T/C [30] 2.29% | viability, T/C [35] 2.53% | viability, T/C [36] 1.91% | viability, T/C [40] 9.79% | viability, T/C [41] 3.81% | viability, T/C [42] 3%
29.3 nM: IC50 [1]
21.8 nM: IC50 [5]
42.6 nM: IC50 [3]

Source: PubChem BioAssay AID2060883 (Molecular Pharmacology Branch, DTP, NCI, 2025)
